Paper PMC7692735, “Bromo-Cyclobutenaminones as New Covalent UDP-N-Acetylglucosamine Enolpyruvyl Transferase (MurA) Inhibitors” (Pharmaceuticals, 2020)
Converted amounts (≈) assume the structure as drawn. “Also recorded” adds a separate entry of the source. Where two headings read alike, the source gives them in different places.

Tests used:
[1] = Aqueous stability assay in PBS buffer; type: physicochemical; settings: PBS buffer pH 7.4, room temperature; read-out: t1/2 aqueous degradation (converted)
Protocol: (§1) The assay was adapted from our former publication.
(§2) For the glutathione assay, 500 μM solution of the fragment (PBS buffer pH 7.4, 10% MeCN, 250 μL) with 200 μM solution of indoprofen (Merck KGaA, Darmstadt, Germany) as internal standard was added to 10 mM glutathione (Merck KGaA, Darmstadt, Germany) solution (dissolved in PBS buffer, 250 μL) in a 1:1 ratio. The final concentration was 250 μM fragment, 100 μM indoprofen, 5 mM glutathione and 5% MeCN (500 μL). The final mixture was analyzed by HPLC-MS (Shimadzu LCMS-2020) after 0, 1, 2, 4, 20, 25, 48, 72 h time intervals. […] The AUC (area under the curve) values were determined via integration of HPLC spectra then corrected using the internal standard. […] The data are expressed as means of duplicate determinations, and the standard deviations were within 10% of the given values. […]
(§3) The reaction half-life for pseudo-first-order reactions is t1/2 = ln2/k, where k is the reaction rate. […] In our case, the corrected kdeg and keff (regarding blank and GSH-containing samples, respectively) can be calculated by linear regression of the data points of the kinetic measurements. The corrected kGSH is calculated by keff − kdeg, and finally, the half-life time is determined using the equation t1/2(GSH) = ln2/kGSH.

MurA (E. coli) [2] = target: T1, MurA (E. coli) (Escherichia coli, UniProt P0A749); assay: MurA assay, colorimetric malachite green method; type: biochemical; settings: for MurA inhibition in screening: 500 μM screening concentration
T1 construct: made in house; host or cells: E. coli
T1 sequence (P0A749 whole entry): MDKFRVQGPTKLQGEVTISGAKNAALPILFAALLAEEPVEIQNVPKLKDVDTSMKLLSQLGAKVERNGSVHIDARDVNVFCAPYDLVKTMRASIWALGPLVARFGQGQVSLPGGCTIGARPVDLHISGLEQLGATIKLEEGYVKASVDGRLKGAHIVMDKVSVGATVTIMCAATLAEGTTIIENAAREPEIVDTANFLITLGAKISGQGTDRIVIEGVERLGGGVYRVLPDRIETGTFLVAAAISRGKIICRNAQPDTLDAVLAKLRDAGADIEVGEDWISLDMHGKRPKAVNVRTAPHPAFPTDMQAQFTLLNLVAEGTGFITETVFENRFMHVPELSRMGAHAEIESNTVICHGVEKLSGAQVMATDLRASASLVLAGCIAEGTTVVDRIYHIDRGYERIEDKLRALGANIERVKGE
Protocol: MurAEC protein was recombinant, expressed in E. coli. The inhibition of MurA was monitored with the colorimetric malachite green method in which orthophosphate generated during the reaction is measured. MurA enzyme (E. coli) was pre-incubated with the substrate UNAG and compound for 30 min at 37 °C. The reaction was started by the addition of the second substrate PEP, resulting in a mixture with a final volume of 50 μL. The mixtures contained: 50 mM Hepes, pH 7.8, 0.005% Triton X-114, 200 μM UNAG, 100 μM PEP, purified MurA (diluted in 50 mM Hepes, pH 7.8) and 500 μM of each tested compound dissolved in DMSO. All compounds were soluble in the assay mixtures containing 5% DMSO (v/v). After incubation for 15 min at 37 °C, the enzyme reaction was terminated by adding Biomol® reagent (100μL) and the absorbance was measured at 650 nm after 5 min. All of the experiments were run in duplicate. Remaining activities (RAs) were calculated with respect to similar assays without the tested compounds and with 5% DMSO. The IC50 values, the concentration of the compound at which the remaining activity was 50%, were determined by measuring the remaining activities at seven different compound concentrations. The data are expressed as means of duplicate determinations, and the standard deviations were within 10% of the given values. A time-dependent inhibition assay was also performed. The IC50 values were determined at 0, 15 and 30 min of pre-incubation.

MurA Cys115 = assay: MS/MS of tryptic digested MurA, covalent labelling; type: binding, E. coli; settings: tryptic peptide amino acids 104–120
Protocol: The tryptic digestion method was adapted from our former publication.
Briefly, 50 μL of MurA (42 μM) and 10 μL 0.2% (w/v) RapiGest SF (Waters Corp., Milford, MA, USA) solution buffered with 50 mM ammonium bicarbonate (NH4HCO3) were mixed (pH = 7.8). 4.5 μL of 45 mM DTT (~200 nmol) in 100 mM NH4HCO3 was added and the mixture kept at 37.5 °C for 30 min. After cooling the sample to room temperature, 7.5 μL of 100 mM iodoacetamide (750 nmol) in 100 mM NH4HCO3 was added and the mixture placed in the dark at room temperature for 30 min. The reduced and alkylated protein was then digested by 10 μL (1 mg mL^−1) trypsin (the enzyme-to-protein ratio was 1:10) (Sigma, St Louis, MO, USA). The sample was incubated at 37 °C overnight. To degrade the surfactant, 7 μL of HCOOH (500 mM) solution was added to the digested […] sample to obtain the final 40 mM (pH ≈ 2) solution which was incubated at 37 °C for 45 min. For LC-MS analysis, the acid-treated sample was centrifuged for 5 min at 13,000 rpm.
A QTRAP 6500 triple quadruple—linear ion trap mass spectrometer, equipped with a Turbo V source in electrospray mode (AB Sciex Pte. Ltd., Framingham, MA, USA) and an Agilent 1100 Binary Pump HPLC system (Agilent Technologies, Waldbronn, Germany) equipped with an autosampler was used for LC-MS/MS analysis. […]

[3] = GSH reactivity assay (HPLC-MS); type: physicochemical; settings: 250 μM fragment, 5 mM glutathione, PBS pH 7.4, 5% MeCN
Protocol: as §1, §2, §3

MurA (E. coli) [4] = target: T1, MurA (E. coli); settings: known MurA inhibitors, Figure 1; cited from earlier work
MurA (E. cloacae) = test system: MurA (E. cloacae); parameters: method as in PMID 24755374, PMID 25521652, PMID 11600375, PMID 30461051; settings: known MurA inhibitors, Figure 1; cited from earlier work
E. coli (ATCC 25922) = assay: Antimicrobial testing (MIC), broth microdilution; type: cell-based; settings: Escherichia coli, ATCC25922, positive control
Protocol: (§4) Antimicrobial testing was carried out by the broth microdilution method in 96-well plate format following the CLSI guidelines and European Committee for Antimicrobial Susceptibility Testing recommendations. Bacterial suspension of specific bacterial strain, equivalent to 0.5 McFarland turbidity standard, was diluted with cation-adjusted Mueller Hinton broth to obtain a final inoculum of 10^5 CFU/mL. Compounds dissolved in DMSO and inoculum were mixed together and incubated for 20–24 h at 37 °C. After incubation the minimal inhibitory concentration (MIC) values were determined by visual inspection as the lowest dilution of compounds showing no turbidity. The MICs were determined against S. aureus (ATCC 29213) and E. coli (ATCC 25922) bacterial strains. Tetracycline was used as a positive control on every assay plate, showing a MIC of 0.5 µg/mL and 1 µg/mL for S. aureus and E. coli, respectively.

S. aureus (ATCC 29213) = assay: Antimicrobial testing (MIC), broth microdilution; type: cell-based; settings: Staphylococcus aureus, ATCC29213, positive control
Protocol: as §4

[5] = fragment 500 μM, 30 min preincubation at 37 °C, read-out: RA (remaining activity) at 500 µM
[6] = fragment 500 μM, 30 min preincubation at 37 °C
[7] = 30 min preincubation, read-out: IC50 (converted)

Compound `CN(C(=O)c1ccccc1)C1=C(Br)C(=O)C1(C)C` [17a, N-(2-bromo-4,4-dimethyl-3-oxocyclobut-1-en-1-yl)-N-methylbenzamide] has a half-life at 250 μM [1] of 36.5 h, an IC50 (MurA (E. coli) [2]; IC50, 30 min preincubation) of 138 µM and a remaining activity at 500 µM (MurA (E. coli) [2]; [5]) of 12 ± 3%. For the same compound, the “Covalent labelling site on MurA by MS/MS” value (MurA Cys115) was “labelled on Cys115; also recorded: labeling on Cys115” and the “kGSH rate constant of conjugation with GSH” value [3] was 0.0128 M/min.

In the case of `C=C(C(=O)O)[C@@H]1[C@@H](CCCCCCCC)OC(=O)[C@@H]1O` [compound 8], the IC50 (MurA (E. coli) [4]) is listed as 2.8 µM.

In the case of `CN(C)C1=CC(=O)C1(C)C` [14b, 3-(Dimethylamino)-4,4-dimethylcyclobut-2-en-1-one], the remaining activity at 500 µM (MurA (E. coli) [2]; [5]) is reported as 99 ± 1%.

In the case of `CN(CC(F)(F)F)C1=C(Br)C(=O)C1(C)C` [15e, 2-Bromo-4,4-dimethyl-3-(methyl(2,2,2-trifluoroethyl)amino)cyclobut-2-en-1-one], the “MurA inhibition in screening” value (MurA (E. coli) [2]) is reported as “no effect” and the remaining activity at 500 µM (MurA (E. coli) [2]; [5]) is reported as 84 ± 4%.

For `CC1=C(O)C(=O)[C@@H]2O[C@@H]2C1=O` [terreic acid], the IC50 (MurA (E. cloacae)) is listed as 14 µM.

For `CCOC1=CC(=O)C1(C)C` [compound 12, 3-Ethoxy-4,4-dimethylcyclobut-2-en-1-one], the “MurA inhibition in screening” value (MurA (E. coli) [2]) was “to no avail” and the remaining activity at 500 µM (MurA (E. coli) [2]; [5]) was 98 ± 2%.

Work on `CN(C(=O)c1ccccc1)C1=CC(=O)C1(C)C` [16a, N-(4,4-dimethyl-3-oxocyclobut-1-en-1-yl)-N-methylbenzamide] yielded a remaining activity at 500 µM (MurA (E. coli) [2]; [5]) of 99 ± 8%.

For `Ic1cncnc1` [compound 10], the IC50 (MurA (E. coli) [4]) is listed as 3.8 µM.

Work on `CCN(CC)C1=C(Br)C(=O)C1(C)C` [15c, 2-Bromo-3-(diethylamino)-4,4-dimethylcyclobut-2-en-1-one] yielded a remaining activity at 500 µM (MurA (E. coli) [2]; [5]) of 88 ± 6%.

For `CN(C)[C@@H]1C(O)=C(C(N)=O)C(=O)[C@@]2(O)C(O)=C3C(=O)c4c(O)cccc4[C@@](C)(O)[C@H]3C[C@@H]12` [Tetracycline], the MIC (E. coli (ATCC 25922)) was 1 µg/mL (≈ 2.25 µM) and the MIC (S. aureus (ATCC 29213)) was 0.5 µg/mL (≈ 1.13 µM).

In the case of `O=C1O/C(=C\c2cccc3ccccc23)C(O)=C1c1ccc(C(F)(F)F)cc1` [compound 5], the IC50 (MurA (E. coli) [4]) is listed as 39 µM.

For `C=C1C(=O)OCC1O` (racemic) [(±)-tulipaline B], the IC50 (MurA (E. coli) [4]) is given as 2.2 µM.

In the case of “2-Bromo-4,4-dimethyl-3-(methylamino)cyclobut-2-en-1-one [15b]”, the “RA (remaining activity) at 500 µM” value (MurA (E. coli) [2]; [6]) is reported as 91 ± 5%.

`CCN(CC)C1=CC(=O)C1(C)C` [14c, 3-(Diethylamino)-4,4-dimethylcyclobut-2-en-1-one] gave a remaining activity at 500 µM (MurA (E. coli) [2]; [5]) of 96 ± 2%.

For `C=Cc1cncs1` [compound 9], the IC50 (MurA (E. coli) [4]) is given as 66 µM.

Work on `CNC1=CC(=O)C1(C)C` [14a, 3-(Methylamino)-4,4-dimethylcyclobut-2-en-1-one] yielded a remaining activity at 500 µM (MurA (E. coli) [2]; [5]) of 93 ± 4%.

Compound `CNC1=C(Br)C(=O)C1(C)C` [15a, 2-Bromo-4,4-dimethyl-3-(methylamino)cyclobut-2-en-1-one] has a remaining activity at 500 µM (MurA (E. coli) [2]; [5]) of 100 ± 7%.

For `CC(=O)N(C)C1=C(Br)C(=O)C1(C)C` [17b, N-(2-bromo-4,4-dimethyl-3-oxocyclobut-1-en-1-yl)-N-methylacetamide], the IC50 (MurA (E. coli) [2]; 0 min preincubation, read-out: IC50 (converted)) was 356 ± 29 µM, the IC50 (MurA (E. coli) [2]; 15 min preincubation, read-out: IC50 (converted)) was 149 ± 15 µM and the IC50 (MurA (E. coli) [2]; [7]) was 128 µM. The remaining activity at 500 µM (MurA (E. coli) [2]; [5]) was 8 ± 2% and the “Covalent labelling site on MurA by MS/MS” value (MurA Cys115) was “labeling on Cys115”.

In the case of `COc1ccc(CN(C)C2=C(Br)C(=O)C2(C)C)cc1` [15d, 2-Bromo-3-((4-methoxybenzyl)(methyl)amino)-4,4-dimethylcyclobut-2-en-1-one], the IC50 (MurA (E. coli) [2]; [7]) is reported as 363 µM, the “RA (remaining activity) at 500 µM” value (MurA (E. coli) [2]; [6]) is reported as 13 ± 1% and the remaining activity at 500 µM (MurA (E. coli) [2]; read-out: RA (remaining activity) at 500 µM, fragment 500 μM, 30 min preincubation at 37 °C) is reported as less than 15%.

Work on `CN(CC(F)(F)F)C1=CC(=O)C1(C)C` [14e, 4,4-Dimethyl-3-(methyl(2,2,2-trifluoroethyl)amino)cyclobut-2-en-1-one] yielded a remaining activity at 500 µM (MurA (E. coli) [2]; [5]) of 98 ± 7%.

With `COc1ccc(CN(C)C2=CC(=O)C2(C)C)cc1` [14d, 3-((4-Methoxybenzyl)(methyl)amino)-4,4-dimethylcyclobut-2-en-1-one] the remaining activity at 500 µM (MurA (E. coli) [2]; [5]) was 99 ± 3%.
